A short description of data set [1]: Maximum achieved massage induced skin load (400 g vibrator, 10 minutes). To be noted: particle size 1 micron ± 0.25 um.
Source text: To counter this problem, Franz Diffusion Cells using the widely accepted Perfused Bovine Udder Skin model were fitted with vibrators which held a soft plastic head against the test skin in a massaging action. The vibrator was allowed to move randomly over the test sample using its own mass to provide the pressure. The total weight of a vibrator and head was 180 grams and the massage heads were 1.2 cm in diameter. The vibrators provided a massage pressure well below that which would be applied by a person finger massaging cream into the skin.
Testing was done by preparing sample creams as discussed below. Each sample was weighed and spread on the test skin. At this point the sample was subject to five minutes of the massage action described and then the remaining cream was removed and skin surface wiped dry. The weight of the absorbed amount was determined by weighing the removed material. The cell was not capped, the skin being left exposed to the air.
Tests were carried out to determine the maximum of both admixture and dry powder that could be induced into the stratum corneum. The vibrator weight was increased to 400 grams and vibration time to 10 minutes. Zinc gluconate (being of particular interest) was used as the active for these tests.
Data set [2] can be described thus: Skin tolerability trials of ascorbic acid admixtures. Particulars: water free carriers, ascorbic acid levels as high as 35%. From the text:
In addition, acidity is a function of the ionic dissociation of a material in solution. In most circumstances water is the primary dissociation medium and so solutions free of water generally have lower acidity. […] While it is impossible to totally exclude water, as there are minute traces in the ingredients utilized as carriers, acidity is kept to a minimum in what are essentially water free admixtures.

The conditions of data set [3]: bovine. The protocol:
All final tests were carried out with HPLC analysis.

The conditions of data set [4]: ascorbic acid content above 14% by weight, water based; cited from earlier work.

For zinc gluconate, the Maximum loading is 1.2 micrograms/cm^2 in data set [1] (carrier Eutanol G) and 0.6 micrograms/cm^2 in data set [1] (carrier Nil (dry powder)).

`O=C1O[C@H]([C@@H](O)CO)C(O)=C1O` [ascorbic acid]: in data set [2], the “subjective discomfort compared with 12% water based admixture” value is reported as “less discomfort” and the tolerability entry is “well tolerated”. In data set [3], the “particle size at which absorption began to be demonstrated” value was “below 7 microns”. Also, the skin reactions result in data set [4] was “burning, stinging and other skin reactions”.

Values taken from patent US20020022052A1, “Transdermal delivery system” (priority 2000, published 2002).
